These are literature values, as cited in patent publication US11534589B2, “Iontophoretic microneedle device” (LTS LOHMANN THERAPIE-SYSTEME AG, priority 2017, dated 2022).

For data set [1] the following is noted: maltose microneedles combined with iontophoresis, hairless rats.

Read-outs that look alike come from different tables or passages of the source.

Regarding `CN(Cc1cnc2nc(N)nc(N)c2n1)c1ccc(C(=O)N[C@@H](CCC(=O)O)C(=O)O)cc1` [methotrexate], the Increase in delivery in data set [1] is recorded as 25 fold.
Consider `CNS(=O)(=O)Cc1ccc2[nH]cc(CCN(C)C)c2c1.O=C(O)CCC(=O)O` [sumatriptan, 3-[2-(dimethylamino)ethyl]-N-methyl-indole-5-methane-sulfonamide succinate (1:1)], for which the Bioavailability reads like this: (nasal spray) no more than 14%; (oral tablet) “not more than 15%”.
